Structures are written as SMILES.

For experiment [1], the system named is 3T3-L1. As to the kind of experiment: Effect on GLUT 1 glucose transporter expression in 3T3-L1 adipocytes at dose of 0.3 uM. The experiment is classed as functional, Mus musculus.
Experiment [2] has as its system 3T3-L1. Nature of the experiment: Effect on GLUT 1 glucose transporter expression in 3T3-L1 adipocytes at dose of 3 uM. It is filed as functional, Mus musculus.
The test system of experiment [3] is 3T3-L1. As to the kind of experiment: Effect on GLUT 1 glucose transporter expression in 3T3-L1 adipocytes at dose of 30 uM. It is filed as functional, Mus musculus.
The subject of experiment [4] is Mus musculus. Nature of the experiment: In vivo ability to lower blood glucose in the ob/ob mouse model at a dose of 1 mg/kg. The experiment is classed as functional.
For experiment [5], the system named is Mus musculus. As to the kind of experiment: In vivo ability to lower blood glucose in the ob/ob mouse model at a dose of 10 mg/kg. The experiment is classed as functional.
The subject of experiment [6] is Mus musculus. As to the kind of experiment: In vivo ability to lower blood glucose in the ob/ob mouse model at a dose of 25 mg/kg. The experiment is classed as functional.
Experiment [7] relates to Mus musculus. As to the kind of experiment: In vivo ability to lower blood glucose in the ob/ob mouse model at a dose of 5 mg/kg. The experiment is classed as functional.

For `Cc1oc(-c2ccccc2)nc1CCOc1ccc(CN(O)C(N)=O)cc1`, the Effect was found to be 97% in the experiment on 3T3-L1 [1], 109.8% in the experiment with 3T3-L1 [2] and 140.6% in the experiment with 3T3-L1 [3].
As to `COC(=O)ON(Cc1ccc(OCCc2nc(-c3ccccc3)oc2C)cc1)C(N)=O`, the Effect with 3T3-L1 [1] was found to be 90.5%; in the experiment on 3T3-L1 [2], 113%; in the experiment on 3T3-L1 [3], 164.5%. The Glucose normalisation in the experiment on Mus musculus [4] is listed as 28%; in the experiment on Mus musculus [5], 77%; in the experiment with Mus musculus [6], 100%; with Mus musculus [7], 80%.
`CNC(=O)N(O)Cc1ccc(OCCc2nc(-c3ccccc3)oc2C)cc1` displayed a Glucose normalisation with Mus musculus [7] of 25%.
Still for that read-out and setting: with `CNC(=O)N(Cc1ccc(OCCc2nc(-c3ccccc3)oc2C)cc1)OC(=O)OC` the figure was 25%.
As to `Cc1oc(-c2ccccc2)nc1CCOc1ccc(Cn2oc(=O)[nH]c2=O)cc1`, the Effect with 3T3-L1 [1] worked out at 109.7%; in the experiment with 3T3-L1 [2], 130.6%; in the experiment on 3T3-L1 [3], 142.3%. The Glucose normalisation is 45% in the experiment on Mus musculus [4], 100% in the experiment on Mus musculus [5] and 97% with Mus musculus [6].
Take `Cc1oc(-c2ccccc2)nc1CCOc1ccc(CN(OC(=O)Oc2ccccc2)C(N)=O)cc1`: in the experiment on Mus musculus [7], the Glucose normalisation is reported as 25%.
With `CC1(COc2ccc(CC3SC(=O)NC3=O)cc2)CCCCC1` (configuration not stated) [CIGLITAZONE], in the experiment with 3T3-L1 [3], the Effect is 151.3%.
Take `CCCCCc1ccc(C(=O)N[C@H]2N=C(c3ccccc3)c3ccccc3N(C)C2=O)cc1`: the Glucose normalisation in the experiment on Mus musculus [7] came to 50%.
On the same count and under the same terms, the value for `CCOC(=O)ON(Cc1ccc(OCCc2nc(-c3ccccc3)oc2C)cc1)C(N)=O` was 52%.

The values are drawn from ChEMBL document CHEMBL1126754, “Hydroxyurea derivatives as hypoglycemic agents” (1993).
